≈ marks a conversion by molar mass, not a printed value.
Columns and labels:
Assay type in all cases: cell-based
[1] = tested on: Mannheimia haemolytica MH 6357 (M7/2, reference strain, cattle infection strain); experiment: MIC, broth-microdilution (CLSI VET01-A4), strain MH 6357; details: Mannheimia haemolytica strain MH 6357, broth-microdilution; unit assumed
Procedure, shortened: (§1)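 Doubling dilution series in trays; visual read, MIC = lowest conc. with no visible turbidity; interpretation per CLSI VET01-S3.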

[2] = tested on: Mannheimia haemolytica MH 13065 (XB0446-6003.9, BRD field isolate); experiment: MIC, broth-microdilution (CLSI VET01-A4), strain MH 13065; details: Mannheimia haemolytica strain MH 13065, broth-microdilution; unit assumed
Procedure, shortened: as §1

[3] = tested on: Mannheimia haemolytica MH 13093 (XB0472-6014.1, BRD field isolate); experiment: MIC, broth-microdilution (CLSI VET01-A4), strain MH 13093; details: Mannheimia haemolytica strain MH 13093, broth-microdilution; unit assumed
Procedure, shortened: as §1

[4] = tested on: Mannheimia haemolytica MH 10720 (154, BRD field isolate); experiment: MIC, broth-microdilution (CLSI VET01-A4), strain MH 10720; details: Mannheimia haemolytica strain MH 10720, broth-microdilution; unit assumed
Procedure, shortened: as §1

[5] = tested on: Pasteurella multocida PM 12080 (IV102277-0093, BRD field isolate); experiment: MIC, broth-microdilution (CLSI VET01-A4), strain PM 12080; details: Pasteurella multocida strain PM 12080, broth-microdilution; unit assumed
Procedure, shortened: as §1

[6] = tested on: Pasteurella multocida PM 6267 (P 2225 (L386), reference strain, mouse infection strain); experiment: MIC, broth-microdilution (CLSI VET01-A4), strain PM 6267; details: Pasteurella multocida strain PM 6267, broth-microdilution; unit assumed
Procedure, shortened: as §1

[7] = tested on: Pasteurella multocida PM 10775 (080130003051, BRD field isolate); experiment: MIC, broth-microdilution (CLSI VET01-A4), strain PM 10775; details: Pasteurella multocida strain PM 10775, broth-microdilution; unit assumed
Procedure, shortened: as §1

[8] = tested on: Mannheimia haemolytica MH 6374 (ATCC 33396, reference strain); experiment: MIC, broth-microdilution (CLSI VET01-A4), strain MH 6374; details: Mannheimia haemolytica strain MH 6374, broth-microdilution; unit assumed
Procedure, shortened: as §1

[9] = tested on: Mannheimia haemolytica MH 12587 (1071, BRD field isolate, macrolide-resistance: erm+, E+); experiment: MIC, broth-microdilution (CLSI VET01-A4), strain MH 12587; details: Mannheimia haemolytica strain MH 12587, broth-microdilution; unit assumed
Procedure, shortened: as §1

[10] = tested on: Pasteurella multocida PM 6391 (ATCC 43137, reference strain); experiment: MIC, broth-microdilution (CLSI VET01-A4), strain PM 6391; details: Pasteurella multocida strain PM 6391, broth-microdilution; unit assumed
Procedure, shortened: as §1

Row | SMILES | MIC MH 6357 [1] | MIC MH 13065 [2] | MIC MH 13093 [3] | MIC MH 10720 [4] | MIC PM 12080 [5] | MIC PM 6267 [6] | MIC PM 10775 [7] | MIC MH 6374 [8] | MIC MH 12587 [9] | MIC PM 6391 [10]
1 | C=CCNCc1ccc(C#Cc2ccc(C(=O)N[C@H](C(=O)NO)C(C)(C)SC)cc2)s1 [Compound 301] | 0.4 µg/mL (≈ 0.874 µM) | 0.4 µg/mL (≈ 0.874 µM) | 0.8 µg/mL (≈ 1.75 µM) | ≤ 0.1 µg/mL | 0.4 µg/mL (≈ 0.874 µM) | 0.4 µg/mL (≈ 0.874 µM) | ≤ 0.1 µg/mL | 0.8 µg/mL (≈ 1.75 µM) | 0.8 µg/mL (≈ 1.75 µM) | 1.6 µg/mL (≈ 3.5 µM)
2 | COCCNCc1ccc(C#Cc2ccc(C(=O)N[C@H](C(=O)NO)C(C)(C)SC)cc2)s1 [Compound 302] | 0.4 µg/mL (≈ 0.841 µM) | 0.8 µg/mL (≈ 1.68 µM) | 0.8 µg/mL (≈ 1.68 µM) | ≤ 0.1 µg/mL | 0.4 µg/mL (≈ 0.841 µM) | 0.8 µg/mL (≈ 1.68 µM) | ≤ 0.1 µg/mL | 0.8 µg/mL (≈ 1.68 µM) | 1.6 µg/mL (≈ 3.36 µM) | 0.8 µg/mL (≈ 1.68 µM)
3 | CSC(C)(C)[C@H](NC(=O)c1ccc(C#Cc2ccc(CN3CCOCC3)s2)cc1)C(=O)NO [Compound 303] | 0.2 µg/mL (≈ 0.41 µM) | 1.6 µg/mL (≈ 3.28 µM) | 1.6 µg/mL (≈ 3.28 µM) | 0.4 µg/mL (≈ 0.82 µM) | 0.4 µg/mL (≈ 0.82 µM) | 1.6 µg/mL (≈ 3.28 µM) | ≤ 0.1 µg/mL | 1.6 µg/mL (≈ 3.28 µM) | 1.6 µg/mL (≈ 3.28 µM) | 0.4 µg/mL (≈ 0.82 µM)
4 | CSC(C)(C)C(NC(=O)c1ccc(C#Cc2ccc(CNCc3ccccc3)s2)cc1)C(=O)NO (stereo not shown) [Compound 304] | 0.8 µg/mL (≈ 1.58 µM) | 1.6 µg/mL (≈ 3.15 µM) | 3.1 µg/mL (≈ 6.11 µM) | ≤ 0.1 µg/mL | 0.4 µg/mL (≈ 0.788 µM) | 1.6 µg/mL (≈ 3.15 µM) | ≤ 0.1 µg/mL | 1.6 µg/mL (≈ 3.15 µM) | 1.6 µg/mL (≈ 3.15 µM) | 1.6 µg/mL (≈ 3.15 µM)
5 | COc1ccc(CNCc2ccc(C#Cc3ccc(C(=O)N[C@H](C(=O)NO)C(C)(C)SC)cc3)s2)cc1 [Compound 305] | 0.8 µg/mL (≈ 1.49 µM) | 0.8 µg/mL (≈ 1.49 µM) | 1.6 µg/mL (≈ 2.98 µM) | 0.2 µg/mL (≈ 0.372 µM) | 0.4 µg/mL (≈ 0.744 µM) | 0.8 µg/mL (≈ 1.49 µM) | ≤ 0.1 µg/mL | 0.8 µg/mL (≈ 1.49 µM) | 3.1 µg/mL (≈ 5.77 µM) | 0.4 µg/mL (≈ 0.744 µM)
6 | CSC(C)(C)[C@H](NC(=O)c1ccc(C#Cc2ccc(CNCc3cccnc3)s2)cc1)C(=O)NO [Compound 306] | 0.8 µg/mL (≈ 1.57 µM) | 0.8 µg/mL (≈ 1.57 µM) | 0.8 µg/mL (≈ 1.57 µM) | 0.2 µg/mL (≈ 0.393 µM) | 0.4 µg/mL (≈ 0.786 µM) | 0.8 µg/mL (≈ 1.57 µM) | ≤ 0.1 µg/mL | 0.8 µg/mL (≈ 1.57 µM) | 3.1 µg/mL (≈ 6.09 µM) | 0.4 µg/mL (≈ 0.786 µM)
7 | CSC(C)(C)[C@H](NC(=O)c1ccc(C#Cc2ccc(CNCc3ccccn3)s2)cc1)C(=O)NO [Compound 307] | 0.8 µg/mL (≈ 1.57 µM) | 0.8 µg/mL (≈ 1.57 µM) | 1.6 µg/mL (≈ 3.15 µM) | ≤ 0.1 µg/mL | 0.4 µg/mL (≈ 0.786 µM) | 0.8 µg/mL (≈ 1.57 µM) | ≤ 0.1 µg/mL | 0.8 µg/mL (≈ 1.57 µM) | 1.6 µg/mL (≈ 3.15 µM) | 0.4 µg/mL (≈ 0.786 µM)
8 | CSC(C)(C)[C@H](NC(=O)c1ccc(C#Cc2ccc(CNCc3ccco3)s2)cc1)C(=O)NO [Compound 308] | 0.8 µg/mL (≈ 1.61 µM) | 0.8 µg/mL (≈ 1.61 µM) | 1.6 µg/mL (≈ 3.22 µM) | ≤ 0.1 µg/mL | 0.4 µg/mL (≈ 0.804 µM) | 0.8 µg/mL (≈ 1.61 µM) | ≤ 0.1 µg/mL | 0.8 µg/mL (≈ 1.61 µM) | 1.6 µg/mL (≈ 3.22 µM) | 0.4 µg/mL (≈ 0.804 µM)
9 | CSC(C)(C)[C@H](NC(=O)c1ccc(C#Cc2ccc(CNCC(F)(F)F)s2)cc1)C(=O)NO [Compound 309] | 0.8 µg/mL (≈ 1.6 µM) | 0.8 µg/mL (≈ 1.6 µM) | 1.6 µg/mL (≈ 3.2 µM) | ≤ 0.1 µg/mL | 0.4 µg/mL (≈ 0.801 µM) | 1.6 µg/mL (≈ 3.2 µM) | ≤ 0.1 µg/mL | 0.8 µg/mL (≈ 1.6 µM) | 1.6 µg/mL (≈ 3.2 µM) | 0.4 µg/mL (≈ 0.801 µM)
10 | CSC(C)(C)[C@H](NC(=O)c1ccc(C#Cc2ccc(CNCc3ncc(C)o3)s2)cc1)C(=O)NO [Compound 310] | 1.6 µg/mL (≈ 3.12 µM) | 1.6 µg/mL (≈ 3.12 µM) | 1.6 µg/mL (≈ 3.12 µM) | 0.4 µg/mL (≈ 0.78 µM) | 0.8 µg/mL (≈ 1.56 µM) | 1.6 µg/mL (≈ 3.12 µM) | 0.4 µg/mL (≈ 0.78 µM) | 0.8 µg/mL (≈ 1.56 µM) | 3.1 µg/mL (≈ 6.05 µM) | 0.4 µg/mL (≈ 0.78 µM)

— patent US11034650B2, “Compounds useful for treating a Mannheimia haemolytica or Histophilus somni infection” (Intervet Inc., priority 2016, dated 2021)
